# According to US20090239841A1, “Diaryl Ureas as CB1 Antagonists” (priority 2004, published 2009):
# pIC50: −log10 of the molar value. Like-named read-outs stand apart in the source and are kept apart here.
# Target: T1, hCB1 (Homo sapiens, UniProt P21554)
# T1 construct: made in house; host or cells: Sf9 insect cells (baculovirus), P2 membranes
# Assay: Agonist-induced GTP binding (GTPγ35S) assay at CB1, Example 8
# Assay type: biochemical
# Settings: IC50 at CB1, GTP binding with 1 nM CP55,940, read-out: IC50
# Text: As noted above, compounds provided herein are CB1 antagonists. Certain such compounds are non-competitive CB1 antagonists. In addition, or alternatively, certain compounds provided herein display CB1 specificity. CB1 antagonist activity may be confirmed using an agonist-induced GTP binding assay, such as the assay described in Example 8. Such assays employ a CB1-containing cell membrane preparation (e.g., a preparation of membranes of insect cells that recombinantly express CB1) to determine the effect of a test compound on CB1 agonist-induced GTP binding to CB1. Briefly, a first cell membrane preparation comprising CB1 is contacted with: (i) labeled GTP; (ii) a CB1 agonist; and (iii) a test compound to yield a test membrane preparation. Simultaneously, or in either order, a second cell membrane preparation comprising CB1 is contacted with: (i) labeled GTP; and (ii) a CB1 agonist to yield a control membrane preparation. The labeled GTP is preferably GTPγ^35S; a representative CB1 agonist is CP55,940. Such contact is performed under conditions that are suitable for GTP binding to CB1, such as the conditions described in Example 8. The concentrations of labeled GTP and CB1 agonist used are generally concentrations that are sufficient to result in a detectable increase in the amount of labeled GTP bound to the membrane preparation in the presence of CB1 agonist. Such concentrations may be determined by routine experimentation; representative suitable concentrations are provided in Example 8. Generally, a range of test compound concentrations is used (e.g., ranging from 10^−10M to 10^−5M).
# After sufficient contact (e.g., incubation) to allow GTP binding to the membrane preparations, a signal that corresponds to (represents) the amount of bound, labeled GTP is detected (typically, unbound labeled GTP is first removed via a washing step). In other words, simultaneously or in either order: (i) a test signal that represents an amount of bound, labeled GTP in the test membrane preparation is detected; and (ii) a control signal that represents an amount of bound, labeled GTP in the control membrane preparation is detected. The nature of the signal detected is determined by the type of label used. For example, if the GTP is radioactively labeled, the signal detected is radioactive decay (e.g., via liquid scintillation spectrometry). The CB1 antagonist activity of the test compound is then determined by comparing the test signal with the control signal.
# This assay can also be used to detect partial agonism mediated by antagonist compounds. A compound being analyzed in this assay is referred to herein as a “test compound.” Agonist-stimulated GTP binding activity is measured as follows: Four independent baculoviral stocks (one directing the expression of hCB1 and three directing the expression of each of the three subunits of a heterotrimeric G-protein) are used to infect a culture of Sf9 cells as described in Example 5.
# Agonist-stimulated GTP binding on purified membranes (as described in Example 6) is initially assessed using the cannabinoid agonist CP55,940 to ascertain that the receptor/G-protein-alpha-beta-gamma combination(s) yield a functional response as measured by GTP binding.
# P2 membranes are resuspended by Dounce homogenization (tight pestle) in GTP binding assay buffer (50 mM Tris pH 7.4, 120 mM NaCl, 5 mM MgCl2, 2 mM EGTA, 0.1% BSA, 0.1 mM bacitracin, 10 KIU/mL aprotinin, 5 μM GDP) and added to reaction tubes at a concentration of 10 μg protein/reaction tube. After adding increasing doses of the agonist CP55,940 at concentrations ranging from 10^−12 M to 10^−6 M, reactions are initiated by the addition of […] GTPγ^35S. In competition experiments, non-radiolabeled test compounds are added to separate assays at concentrations ranging from 10^−10 M to 10^−5 M along with 1 nM CP55,940 to yield a final volume of 0.25 mL. […]
# T1 sequence (P21554 whole entry): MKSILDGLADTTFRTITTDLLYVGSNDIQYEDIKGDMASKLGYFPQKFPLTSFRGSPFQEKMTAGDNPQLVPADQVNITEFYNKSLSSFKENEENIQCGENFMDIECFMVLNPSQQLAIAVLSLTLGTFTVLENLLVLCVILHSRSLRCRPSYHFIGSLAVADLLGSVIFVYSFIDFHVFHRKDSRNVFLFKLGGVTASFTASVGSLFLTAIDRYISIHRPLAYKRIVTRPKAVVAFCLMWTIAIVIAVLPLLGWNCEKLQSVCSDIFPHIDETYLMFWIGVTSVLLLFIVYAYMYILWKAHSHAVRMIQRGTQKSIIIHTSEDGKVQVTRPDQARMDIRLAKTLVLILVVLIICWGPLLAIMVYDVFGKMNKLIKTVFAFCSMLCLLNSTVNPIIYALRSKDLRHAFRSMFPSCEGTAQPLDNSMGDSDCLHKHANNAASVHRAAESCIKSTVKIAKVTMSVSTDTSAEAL
Compound,pIC50 (Table I),pIC50 (Table II)
"CCc1ccc(NC(=O)Nc2ccc(Cl)cc2)cc1 [Compound 25, N-(4-chlorophenyl)-N′-(4-ethylphenyl)urea]",> 5.70,
"CCc1ccc(NC(=O)Nc2ccc(C#N)cc2)cc1 [Compound 27, N-(4-cyanophenyl)-N′-(4-ethylphenyl)urea]",> 5.70,
"CCc1ccc(NC(=O)Nc2ccc(CO)cc2)cc1 [Compound 28, N-(4-ethylphenyl)-N′-[4-(hydroxymethyl)phenyl]urea]",> 5.70,
"CCc1ccc(NC(=O)Nc2ccc(O)cc2)cc1 [Compound 29, N-(4-ethylphenyl)-N′-(4-hydroxyphenyl)urea]",> 5.70,
"CCc1ccc(NC(=O)Nc2ccccc2)cc1 [Compound 35, N-(4-ethylphenyl)-N′-phenylurea]",> 5.70,
"CCCCc1ccc(NC(=O)Nc2ccc(C)cc2)cc1 [Compound 37, N-(4-butylphenyl)-N′-(4-methylphenyl)urea]",> 5.70,
"Cc1ccc(NC(=O)Nc2cccc(OC(C)C)c2)cc1 [Compound 38, N-(3-isopropoxyphenyl)-N′-(4-methylphenyl)urea]",> 5.70,
"CCCc1ccc(NC(=O)Nc2ccc(C)cc2)cc1 [Compound 39, N-(4-methylphenyl)-N′-(4-propylphenyl)urea]",> 5.70,
"CCCOc1ccc(NC(=O)Nc2ccc(C)cc2)cc1 [Compound 40, N-(4-methylphenyl)-N′-(4-propoxyphenyl)urea]",> 5.70,
"Cc1ccc(NC(=O)Nc2ccc(OC(F)F)cc2)cc1 [Compound 41, N-[4-(difluoromethoxy)phenyl]-N′-(4-methylphenyl)urea]",> 5.70,
"CCc1ccc(NC(=O)Nc2ccc(C)cc2)cc1 [Compound 42, N-(4-ethylphenyl)-N′-(4-methylphenyl)urea]",> 5.70,
"Cc1ccc(NC(=O)Nc2ccc(Cl)cc2)cc1 [Compound 43, N-(4-chlorophenyl)-N′-(4-methylphenyl)urea]",> 5.70,
"CCCOc1ccc(NC(=O)Nc2ccccc2)cc1 [Compound 44, N-phenyl-N′-(4-propoxyphenyl)urea]",> 5.70,
"CCCc1ccc(NC(=O)Nc2ccccc2)cc1 [Compound 45, N-phenyl-N′-(4-propylphenyl)urea]",> 5.70,
"CCCCc1ccc(NC(=O)Nc2ccccc2)cc1 [Compound 46, N-(4-butylphenyl)-N′-phenylurea]",> 5.70,
"CC(C)c1ccc(NC(=O)Nc2ccccc2)cc1 [Compound 47, N-(4-isopropylphenyl)-N′-phenylurea]",> 5.70,
"O=C(Nc1ccccc1)Nc1ccc(OC(F)F)cc1 [Compound 48, N-[4-(difluoromethoxy)phenyl]-N′-phenylurea]",> 5.70,
"CC(C)Oc1cccc(NC(=O)Nc2ccccc2)c1 [Compound 49, N-(3-isopropoxyphenyl)-N′-phenylurea]",> 5.70,
"CCc1ccc(NC(=O)Nc2ccc(OC(F)F)c(OC)c2)cc1 [Compound 53, N-[4-(difluoromethoxy)-3-methoxyphenyl]-N′-(4-ethylphenyl)urea]",> 5.70,
"COc1cc(NC(=O)Nc2ccc(OC(F)F)c(OC)c2)ccc1OC(F)F [Compound 54, N,N′-bis[4-(difluoromethoxy)-3-methoxyphenyl]urea]",> 5.70,
"CCc1ccc(NC(=O)Nc2cccc(C#N)c2)cc1 [Compound 55, N-(3-cyanophenyl)-N′-(4-ethylphenyl)urea]",> 5.70,
"CCc1ccc(NC(=O)Nc2cccc(C(C)=O)c2)cc1 [Compound 56, N-(3-acetylphenyl)-N′-(4-ethylphenyl)urea]",> 5.70,
"CCc1ccc(NC(=O)Nc2cccc(OC)c2)cc1 [Compound 57, N-(4-ethylphenyl)-N′-(3-methoxyphenyl)urea]",> 5.70,
"CCc1ccc(NC(=O)Nc2cccc(F)c2)cc1 [Compound 58, N-(4-ethylphenyl)-N′-(3-fluorophenyl)urea]",> 5.70,
"CCc1ccc(NC(=O)Nc2cccc(C)c2)cc1 [Compound 59, N-(4-ethylphenyl)-N′-(3-methylphenyl)urea]",> 5.70,
"COc1cc(NC(=O)Nc2ccc(C)cc2)ccc1OC(F)F [Compound 61, N-[4-(difluoromethoxy)-3-methoxyphenyl]-N′-(4-methylphenyl)urea]",,> 5.70
"O=C(Nc1ccc(OC(F)F)cc1)Nc1cccc(-c2ccccn2)c1 [Compound 62, N-[4-(difluoromethoxy)phenyl]-N′-(3-pyridin-2-ylphenyl)urea]",,> 5.70

# The remaining lines, values ahead:
pIC50 (Table I),pIC50 (Table II),Compound
> 5.70,,"O=C(Nc1ccc(OC(F)F)cc1)Nc1ccc(OC(F)F)cc1 [Compound 4, N,N′-bis[4-(difluoromethoxy)phenyl]urea]"
> 5.70,,"CCc1ccc(NC(=O)Nc2ccc(OC(F)F)cc2)cc1 [Compound 5, N-[4-(difluoromethoxy)phenyl]-N′-(4-ethylphenyl)urea]"
> 5.70,,"COc1cc(NC(=O)Nc2ccc(OC(F)F)cc2)ccc1OC(F)F [Compound 6, N-[4-(difluoromethoxy)-3-methoxyphenyl]-N′-[4-(difluoromethoxy)phenyl]urea]"
> 5.70,,"N#Cc1cccc(NC(=O)Nc2ccc(OC(F)F)cc2)c1 [Compound 8, N-(3-cyanophenyl)-N′-[4-(difluoromethoxy)phenyl]urea]"
> 5.70,,"CCOc1cccc(NC(=O)Nc2ccc(OC(F)F)cc2)c1 [Compound 9, N-[4-(difluoromethoxy)phenyl]-N′-(3-ethoxyphenyl)urea]"
> 5.70,,"Cc1nccc(-c2cccc(NC(=O)Nc3ccc(OC(F)F)cc3)c2)n1 [Compound 10, N-[4-(difluoromethoxy)phenyl]-N′-[3-(2-methylpyrimidin-4-yl)phenyl]urea]"
> 5.70,,"CCc1cccc(NC(=O)Nc2ccc(OC(F)F)cc2)c1 [Compound 11, N-[4-(difluoromethoxy)phenyl]-N′-(3-ethylphenyl)urea]"
> 5.70,,"CC(=O)c1cccc(NC(=O)Nc2ccc(OC(F)F)cc2)c1 [Compound 12, N-(3-acetylphenyl)-N′-[4-(difluoromethoxy)phenyl]urea]"
> 5.70,,"O=C(Nc1ccc(OC(F)F)cc1)Nc1cccc(OCCO)c1 [Compound 14, N-[4-(difluoromethoxy)phenyl]-N′-[3-(2-hydroxyethoxy)phenyl]urea]"
> 5.70,,"O=C(Nc1ccc(OC(F)F)cc1)Nc1cccc(Cl)c1 [Compound 15, N-(3-chlorophenyl)-N′-[4-(difluoromethoxy)phenyl]urea]"
> 5.70,,"O=C(Nc1ccc(OC(F)F)cc1)Nc1cccc(F)c1 [Compound 16, N-[4-(difluoromethoxy)phenyl]-N′-(3-fluorophenyl)urea]"
> 5.70,,"O=C(Nc1ccc(OC(F)F)cc1)Nc1cccc(O)c1 [Compound 17, N-[4-(difluoromethoxy)phenyl]-N′-(3-hydroxyphenyl)urea]"
> 5.70,,"Cc1cccc(NC(=O)Nc2ccc(OC(F)F)cc2)c1 [Compound 18, N-[4-(difluoromethoxy)phenyl]-N′-(3-methylphenyl)urea]"
> 5.70,,"CCCc1ccc(NC(=O)Nc2ccc(CC)cc2)cc1 [Compound 20, N-(4-ethylphenyl)-N′-(4-propylphenyl)urea]"
> 5.70,,"CCc1ccc(NC(=O)Nc2ccc(CC)cc2)cc1 [Compound 21, N,N′-bis(4-ethylphenyl)urea]"
> 5.70,,"CCc1ccc(NC(=O)Nc2ccc(C(C)=O)cc2)cc1 [Compound 22, N-(4-acetylphenyl)-N′-(4-ethylphenyl)urea]"
> 5.70,,"CCc1ccc(NC(=O)Nc2cccc(OC(C)C)c2)cc1 [Compound 23, N-(4-ethylphenyl)-N′-(3-isopropoxyphenyl)urea]"
> 5.70,,"CCCOc1ccc(NC(=O)Nc2ccc(CC)cc2)cc1 [Compound 24, N-(4-ethylphenyl)-N′-(4-propoxyphenyl)urea]"
